# Source: US10758534B2 (Vertex Pharmaceuticals Incorporated, priority 2014, dated 2020)
# Target: T1, F508del (Homo sapiens, UniProt P13569, DEL508-508)
# T1 construct: expressed in transfected cells
# Assay: Protocol 2: FRET membrane potential optical assay (VIPR), identification of correction compounds
# Format: cell-based
# Settings: F508del CFTR modulator activity; compounds of Table 1; read-out: EC30
# How it was run: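 NIH3T3 mouse fibroblasts stably expressing F508del-CFTR incubated with compound 16 h at 37 °C in serum-free medium, then loaded with CC2-DMPE/DiSBAC2(3) FRET dyes. Channel activated with 10 μM forskolin plus 20 μM genistein in Cl⁻-free (gluconate) bath; depolarisation from Cl⁻ efflux read on VIPR II.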
# T1 sequence (P13569 with tags, fused parts or gaps DEL508-508): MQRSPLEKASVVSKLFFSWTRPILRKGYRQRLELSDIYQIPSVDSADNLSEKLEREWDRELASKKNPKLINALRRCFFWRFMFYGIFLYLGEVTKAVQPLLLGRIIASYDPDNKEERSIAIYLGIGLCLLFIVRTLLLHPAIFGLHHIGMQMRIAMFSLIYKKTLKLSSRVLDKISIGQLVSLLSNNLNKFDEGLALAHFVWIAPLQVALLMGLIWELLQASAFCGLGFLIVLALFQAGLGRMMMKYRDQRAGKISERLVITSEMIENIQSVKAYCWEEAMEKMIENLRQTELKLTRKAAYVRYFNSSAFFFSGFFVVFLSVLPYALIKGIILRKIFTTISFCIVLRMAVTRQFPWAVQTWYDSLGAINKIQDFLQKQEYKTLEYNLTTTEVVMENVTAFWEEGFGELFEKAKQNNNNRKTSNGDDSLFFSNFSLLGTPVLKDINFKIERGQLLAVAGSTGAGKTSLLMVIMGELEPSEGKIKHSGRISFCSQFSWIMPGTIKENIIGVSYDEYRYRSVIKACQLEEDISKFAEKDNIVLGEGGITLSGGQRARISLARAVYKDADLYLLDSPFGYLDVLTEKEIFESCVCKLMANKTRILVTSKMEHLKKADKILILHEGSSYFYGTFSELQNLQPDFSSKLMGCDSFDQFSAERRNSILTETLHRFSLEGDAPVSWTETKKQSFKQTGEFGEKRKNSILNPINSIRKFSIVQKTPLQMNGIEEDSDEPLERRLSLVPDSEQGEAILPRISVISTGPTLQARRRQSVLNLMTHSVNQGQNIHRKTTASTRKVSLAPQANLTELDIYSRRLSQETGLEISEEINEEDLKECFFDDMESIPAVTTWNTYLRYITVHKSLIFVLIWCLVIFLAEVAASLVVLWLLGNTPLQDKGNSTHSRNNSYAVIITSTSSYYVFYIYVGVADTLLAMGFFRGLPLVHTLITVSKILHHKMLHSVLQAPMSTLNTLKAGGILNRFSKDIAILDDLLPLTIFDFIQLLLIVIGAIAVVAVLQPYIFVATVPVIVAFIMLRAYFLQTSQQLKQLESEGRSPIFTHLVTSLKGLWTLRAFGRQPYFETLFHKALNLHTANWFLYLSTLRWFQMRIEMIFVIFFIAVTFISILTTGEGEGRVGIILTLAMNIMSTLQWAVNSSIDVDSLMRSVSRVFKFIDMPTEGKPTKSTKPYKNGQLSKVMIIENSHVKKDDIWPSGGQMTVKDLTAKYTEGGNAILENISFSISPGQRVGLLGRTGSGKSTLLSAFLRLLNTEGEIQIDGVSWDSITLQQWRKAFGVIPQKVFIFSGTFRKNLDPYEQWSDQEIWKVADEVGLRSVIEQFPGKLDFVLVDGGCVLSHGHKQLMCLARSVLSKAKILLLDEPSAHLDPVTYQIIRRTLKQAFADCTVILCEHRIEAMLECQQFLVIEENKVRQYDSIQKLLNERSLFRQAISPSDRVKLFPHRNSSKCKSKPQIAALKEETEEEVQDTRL
row,Structure (SMILES),EC30 [nM]
1,"Cc1ccn(CCCNc2cccc(S(=O)(=O)NC(=O)c3cccnc3N3CC(C)CC3(C)C)n2)n1 (stereo not shown) [Compound 2550, N—[[6-[3-(3-methylpyrazol-1-yl)propylamino]-2-pyridyl]sulfonyl]-2-(2,2,4-trimethylpyrrolidin-1-yl)pyridine-3-carboxamide]",3000 to 10000
2,"CC1CN(c2ncccc2C(=O)NS(=O)(=O)c2cccc(NC3CCCCC3)n2)C(C)(C)C1 (stereo not shown) [Compound 2250, N—[[6-(cyclohexylamino)-2-pyridyl]sulfonyl]-2-(2,2,4-trimethylpyrrolidin-1-yl)pyridine-3-carboxamide]",< 3000
3,"CC1CN(c2ncccc2C(=O)NS(=O)(=O)c2cccc(Nc3ccc4c(c3)OCCO4)n2)C(C)(C)C1 (stereo not shown) [Compound 2190, N—[[6-(2,3-dihydro-1,4-benzodioxin-6-ylamino)-2-pyridyl]sulfonyl]-2-(2,2,4-trimethylpyrrolidin-1-yl)pyridine-3-carboxamide]",< 3000
4,"CC(C)COc1cc(F)cc(-c2ccc(C(=O)NS(=O)(=O)c3cccc(N)n3)c(N3C[C@@H](C)CC3(C)C)c2F)c1 [Compound 2634, N-[(6-amino-2-pyridyl)sulfonyl]-3-fluoro-4-(3-fluoro-5-isobutoxy-phenyl)-2-[(4S)-2,2,4-trimethylpyrrolidin-1-yl]benzamide]",< 3000
5,"C[C@@H]1CN(c2nc(-c3ccc(F)cc3F)ccc2C(=O)NS(=O)(=O)c2cccnc2N)C(C)(C)C1 [Compound 2447, N-[(2-amino-3-pyridyl)sulfonyl]-6-(2,4-difluorophenyl)-2-[(4S)-2,2,4-trimethylpyrrolidin-1-yl]pyridine-3-carboxamide]",< 3000
6,"C[C@@H]1CN(c2nc(-c3ccccc3F)ccc2C(=O)NS(=O)(=O)N2CC[C@H](N)C2)C(C)(C)C1 [Compound 2045, N-[(3S)-3-aminopyrrolidin-1-yl]sulfonyl-6-(2-fluorophenyl)-2-[(4S)-2,2,4-trimethylpyrrolidin-1-yl]pyridine-3-carboxamide]",3000 to 10000
7,"CC1CN(c2ncc(-c3ccc(C(C)(C)C)cc3)cc2C(=O)NS(=O)(=O)c2cccc(N)n2)C(C)(C)C1 (stereo not shown) [Compound 2463, N-[(6-amino-2-pyridyl)sulfonyl]-5-(4-tert-butylpenyl)-2-(2,2,4-trimethylpyrrolidin-1-yl)pyridine-3-carboxamide]",< 3000
8,"Cc1ccc(F)cc1-c1ccc(C(=O)NS(=O)(=O)N2CC[C@H](N)C2)c(N2C[C@@H](C)CC2(C)C)n1 [Compound 2490, N-[(3S)-3-aminopyrrolidin-1-yl]sulfonyl-6-(5-fluoro-2-methyl-phenyl)-2-[(4S)-2,2,4-trimethylpyrrolidin-1-yl]pyridine-3-carboxamide]",< 3000
9,"COc1ncc(-c2ccc(C(=O)NS(=O)(=O)c3cccnc3N)c(N3C[C@@H](C)CC3(C)C)n2)cc1C [Compound 2564, N-[(2-amino-3-pyridyl)sulfonyl]-6-(6-methoxy-5-methyl-3-pyridyl)-2-[(4S)-2,2,4-trimethylpyrrolidin-1-yl]pyridine-3-carboxamide]",< 3000
10,"COc1cccc(CNc2cccc(S(=O)(=O)NC(=O)c3cccnc3N3CC(C)CC3(C)C)n2)c1 (stereo not shown) [Compound 2168, N—[[6-[(3-methoxyphenyl)methylamino]-2-pyridyl]sulfonyl]-2-(2,2,4-trimethylpyrrolidin-1-yl)pyridine-3-carboxamide]",< 3000
11,"COCCOc1ncc(-c2ccc(C(=O)NS(=O)(=O)c3cccc(N)n3)c(N3C[C@@H](C)CC3(C)C)n2)cc1C [Compound 2582, N-[(6-amino-2-pyridyl)sulfonyl]-6-[6-(2-methoxyethoxy)-5-methyl-3-pyridyl]-2-[(4S)-2,2,4-trimethylpyrrolidin-1-yl]pyridine-3-carboxamide]",< 3000
12,"C[C@@H]1CN(c2nc(-c3ccc(Cl)cc3)ccc2C(=O)NS(=O)(=O)c2cccnc2N)C(C)(C)C1 [Compound 2367, N-[(2-amino-3-pyridyl)sulfonyl]-6-(4-chlorophenyl)-2-[(4S)-2,2,4-trimethylpyrrolidin-1-yl]pyridine-3-carboxamide]",< 3000
13,"C[C@@H]1CN(c2nc(C3CC(C)(C)CCC3O)ccc2C(=O)NS(=O)(=O)c2cccnc2N)C(C)(C)C1 (stereo partly drawn) [Compound 2047, N-[(2-amino-3-pyridyl)sulfonyl]-6-(2-hydroxy-5,5-dimethyl-cyclohexyl)-2-[(4S)-2,2,4-trimethylpyrrolidin-1-yl]pyridine-3-carboxamide]",3000 to 10000
14,COc1ccc(S(=O)(=O)NC(=O)c2ccc(-c3ccc(OC(C)C)nc3)nc2N2C[C@@H](C)CC2(C)C)c(N)n1 [Compound 2688],< 3000
15,"C[C@@H]1CN(c2nc(-c3ccc4c(c3)OCCO4)ccc2C(=O)NS(=O)(=O)c2cccnc2N)C(C)(C)C1 [Compound 2522, N-[(2-amino-3-pyridyl)sulfonyl]-6-(2,3-dihydro-1,4-benzodioxin-6-yl)-2-[(4S)-2,2,4-trimethylpyrrolidin-1-yl]pyridine-3-carboxamide]",< 3000

# Same assay, conditions: Table 3; compounds of Table 1 as modulators of CFTR activity; protocol not stated
row,Structure (SMILES),EC30
1,"Cc1cc(-c2nc(C(C)(C)C)ccc2C(=O)NS(=O)(=O)c2cccc(N)c2)ccc1F [Compound 177, N-(3-aminophenyl)sulfonyl-6-tert-butyl-2-(4-fluoro-3-methyl-phenyl)pyridine-3-carboxamide]",++ (“++” means between 3 uM and 10 uM)
2,"Cc1cc(C)c(Oc2nc(C(C)(C)C)ccc2C(=O)NS(=O)(=O)c2cccc(N)c2)c(C#N)c1 [Compound 221, N-(3-aminophenyl)sulfonyl-6-tert-butyl-2-(2-cyano-4,6-dimethyl-phenoxy)pyridine-3-carboxamide]",+++ (“+++” means <3 uM)
3,"CC(C)COc1cc(F)cc(-c2ccc(C(=O)NS(=O)(=O)c3cccc(N)n3)c(N3CCCC3(C)C)n2)c1 [Compound 361, N-[(6-amino-2-pyridyl)sulfonyl]-2-(2,2-dimethylpyrrolidin-1-yl)-6-(3-fluoro-5-isobutoxy-phenyl)pyridine-3-carboxamide]",+++ (“+++” means <3 uM)
4,"CNc1cccc(S(=O)(=O)NC(=O)c2ccc(C(C)(C)C)nc2Oc2c(C)cc(C)cc2C)n1 [Compound 262, 6-tert-butyl-N-[[6-(methylamino)-2-pyridyl]sulfonyl]-2-(2,4,6-trimethylphenoxy)pyridine-3-carboxamide]",+++ (“+++” means <3 uM)
5,"Cn1ccc2cccc(Cn3nc(C(C)(C)C)cc3C(=O)NS(=O)(=O)c3cccc(N)c3)c21 [Compound 755, N-(3-aminophenyl)sulfonyl-5-tert-butyl-2-[(1-methylindol-7-yl)methyl]pyrazole-3-carboxamide]",++ (“++” means between 3 uM and 10 uM)
6,"CC(C)COc1cc(F)cc(-c2ccc(C(=O)NS(=O)(=O)c3ccn[nH]3)c(N3CCCCC3)n2)c1 [Compound 355, 6-(3-fluoro-5-isobutoxy-phenyl)-2-(1-piperidyl)-N-(1H-pyrazol-5-ylsulfonyl)pyridine-3-carboxamide]",+++ (“+++” means <3 uM)
7,"COc1ncccc1S(=O)(=O)NC(=O)c1ccc(C(C)(C)C)nc1Oc1ccc(C)cc1C [Compound 89, 6-tert-butyl-2-(2,4-dimethylphenoxy)-N-[(2-methoxy-3-pyridyl)sulfonyl]pyridine-3-carboxamide]",+++ (“+++” means <3 uM)
8,"CC(C)(C)c1ccc(C(=O)NS(=O)(=O)c2cccc(N)n2)c(C2=CCCCC2)n1 [Compound 478, N-[(6-amino-2-pyridyl)sulfonyl]-6-tert-butyl-2-(cyclohexen-1-yl)pyridine-3-carboxamide]",++ (“++” means between 3 uM and 10 uM)
9,"CC(C)(C)c1ccc(C(=O)NS(=O)(=O)c2cccc(N)c2)c(-c2ccc(F)cc2)n1 [Compound 46, N-(3-aminophenyl)sulfonyl-6-tert-butyl-2-(4-fluorophenyl)pyridine-3-carboxamide]",++ (“++” means between 3 uM and 10 uM)
10,"CC(C)Oc1ccc(-c2ccc(C(=O)NS(=O)(=O)c3cccc(N)n3)c(N3CCc4ccccc43)n2)cn1 [Compound 588, N-[(6-amino-2-pyridyl)sulfonyl]-2-indolin-1-yl-6-(6-isopropoxy-3-pyridyl)pyridine-3-carboxamide]",++ (“++” means between 3 uM and 10 uM)
11,"CC(C)COc1cc(F)cc(-c2ccc(C(=O)NS(=O)(=O)c3ccn[nH]3)c(N3[C@H](C)CC[C@@H]3C)n2)c1 [Compound 415, 2-[(2S,5R)-2,5-dimethylpyrrolidin-1-yl]-6-(3-fluoro-5-isobutoxy-phenyl)-N-(1H-pyrazol-5-ylsulfonyl)pyridine-3-carboxamide]",+++ (“+++” means <3 uM)
12,"COc1cc(F)ccc1-c1cc(C(=O)NS(=O)(=O)c2ccccc2)n(Cc2c(C)cccc2C)n1 [Compound 155, N-(benzenesulfonyl)-2-[(2,6-dimethylphenyl)methyl]-5-(4-fluoro-2-methoxy-phenyl)pyrazole-3-carboxamide]",++ (“++” means between 3 uM and 10 uM)
13,"CC(C)(C)c1cc(C(=O)NS(=O)(=O)c2cccc(N)c2)n(Cc2cccc3ccccc23)n1 [Compound 295, N-(3-aminophenyl)sulfonyl-5-tert-butyl-2-(1-naphthylmethyl)pyrazole-3-carboxamide]",++ (“++” means between 3 uM and 10 uM)
14,"Cc1cccc(C)c1Oc1nc(C(F)(F)F)ccc1C(=O)NS(=O)(=O)c1cccc(N)n1 [Compound 246, N-[(6-amino-2-pyridyl)sulfonyl]-2-(2,6-dimethylphenoxy)-6-(trifluoromethyl)pyridine-3-carboxamide]",++ (“++” means between 3 uM and 10 uM)
15,"Cc1cc(C)c(Oc2nc(C)ccc2C(=O)NS(=O)(=O)c2cccc(N)c2)c(C)c1 [Compound 13, N-(3-aminophenyl)sulfonyl-6-methyl-2-(2,4,6-trimethylphenoxy)pyridine-3-carboxamide]",++ (“++” means between 3 uM and 10 uM)
16,Cc1cc(C)c(Cc2cn(C(C)(C)C)nc2C(=O)NS(=O)(=O)c2cccc(N)c2)c(C)c1 [Compound 367],+++ (“+++” means <3 uM)
